The experiment has as its target T1, GPR88 (Homo sapiens, UniProt Q9GZN0).
T1 construct: expressed in transfected cells
The experiment can be described thus: Lance Ultra TR-FRET cAMP assay using stable PPLS-HA-GPR88 CHO cells. As to conditions: for Emax: CHO; for EC50 / cAMP pEC50: stable PPLS-HA-GPR88 CHO cells; for EC50: value in parentheses beside pEC50; for cAMP pEC50: 300 nM forskolin, mean ± standard error of at least three independent experiments in duplicate. It counts as cell-based. The method, then:
The compounds of the present disclosure offer potent agonism to the orphan receptor GPR88. As such, the compounds of the present disclosure provide therapeutic potential for the treatment of striatal associated disorders such as Parkinson's disease, schizophrenia, and alcohol addiction. All compounds were evaluated for the GPR88 agonist activity in the inventors' previously established in vitro GPR88 Lance TR-FRET cAMP assay. See, supra, Jin et al., 2018, Rahman et al., 2020, and Rahman et al., 2021. As will be described, the TR-FRET signal was converted to fmol cAMP by interpolating from the standard cAMP curve. Fmol cAMP was plotted against the log of compound concentration and data were fit to a three-parameter logistic curve to generate maximum response (Emax) and EC50 values.
Lance™ Ultra cAMP assay using stable PPLS-HA-GPR88 CHO cells. All cAMP assays were performed using the inventors' previously published methods. […] ACS Chemical Neuroscience 2016, 7, 1418-1432, which is incorporated by reference herein with regard to such teaching. Stimulation buffer containing 1× Hank's Balanced Salt Solution (HBSS), 5 mM HEPES, 0.1% BSA stabilizer, and 0.5 mM final IBMX was prepared and titrated to pH 7.4 at room temperature. Serial dilutions of the test compounds (5 μL) and 300 nM forskolin (5 μL), both prepared at 4× the desired final concentration in 2% DMSO/stimulation buffer, were added to a 96-well white ½ area microplate (PerkinElmer). A cAMP standard curve was prepared at 4× the desired final concentration in stimulation buffer and 5 μL was added to the assay plate. Stable PPLS-HA-GPR88 CHO cells were lifted with versene and spun at 270 g for 10 minutes. The cell pellet was resuspended in stimulation buffer and 4,000 cells (10 μL) were added to each well except wells containing the cAMP standard curve. After incubating for 30 min at room temperature, Eu-cAMP tracer and uLIGHT-anti-cAMPworking solutions were added per the manufacturer's instructions. After incubation at room temperature for 1 hour, the TR-FRET signal (ex 337 nm) was read on a CLARIOstar multimode plate reader (BMG Biotech, Cary, NC).
Data Analysis. The TR-FRET signal (665 nm) was converted to fmol cAMP by interpolating from the standard cAMP curve. Fmol cAMP was plotted against the log of compound concentration and data were fit to a three-parameter logistic curve to generate EC50 values (Prism, version 6.0, GraphPad Software, Inc., San Diego, CA).

T1 sequence (Q9GZN0 whole entry): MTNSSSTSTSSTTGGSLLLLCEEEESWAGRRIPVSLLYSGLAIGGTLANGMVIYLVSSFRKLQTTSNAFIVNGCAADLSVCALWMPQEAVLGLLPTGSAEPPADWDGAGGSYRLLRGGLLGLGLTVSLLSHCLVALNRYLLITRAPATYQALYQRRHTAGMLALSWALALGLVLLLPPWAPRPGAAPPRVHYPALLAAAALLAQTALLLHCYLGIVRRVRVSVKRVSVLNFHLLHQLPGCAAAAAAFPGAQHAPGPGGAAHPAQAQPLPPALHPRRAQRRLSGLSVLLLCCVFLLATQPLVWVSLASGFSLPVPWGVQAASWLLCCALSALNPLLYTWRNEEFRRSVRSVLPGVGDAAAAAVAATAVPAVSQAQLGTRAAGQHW

The Emax is the maximal effect, on the per cent scale that the assay sets. Broadly, the EC50 is the concentration needed to bring the measured effect to its halfway point. As to `C[C@@H](NC(=O)[C@H](CO)c1ccc(-c2ccc(CC3CC3)cc2)cc1)c1ccccc1` [Compound 33, (2S)-2-[4′-(Cyclopropylmethyl)-[1,1′-biphenyl]-4-yl]-3-hydroxy-N-[(1 R)-1-phenylethyl]propenamide], the Emax was 87 ± 5% and the EC50 was 263 nM.

On to `C[C@@H](NC(=O)[C@H](CO)c1ccc(-c2ccc(OC3CC3)cc2)cc1)c1ccccc1` [Compound 34, (2S)-2-{4′-cyclopropoxy-[1,1′-biphenyl]-4-yl}-3-hydroxy-N-[(1 R)-1-phenylethyl]propenamide], for which the maximal response (Emax) came to 86% and the EC50 was 245 nM. The matching figures for `C[C@@H](NC(=O)[C@H](CO)c1ccc(-c2ccc(OC3CCC3)cc2)cc1)c1ccccc1` [Compound 35, (2S)-2-{4′-Cyclobutoxy-[1,1′-biphenyl]-4-yl}-3-hydroxy-N-[(1 R)-1-phenylethyl]propenamide]: 90 ± 10% and 224 nM. On to `CCCC#Cc1ccc([C@@H](CO)C(=O)N[C@H](C)c2ccccc2)cc1` [Compound 36, (2S)-3-Hydroxy-2-[4-(pent-1-yn-1-yl)phenyl]-N-[(1 R)-1-phenylethyl]propenamide], for which the Emax came out at 92 ± 7% and the EC50 is 204 nM. With `CC(C)C#Cc1ccc([C@@H](CO)C(=O)N[C@H](C)c2ccccc2)cc1` [Compound 37, (2S)-3-Hydroxy-2-[4-(3-methylbut-1-yn-1-yl)phenyl]-N-[(1 R)-1-phenylethyl]propenamide], the Emax stood at 102 ± 2% and the EC50 is 479 nM. As to `CCCc1ccc(-c2ccc(N(C[C@@H](N)[C@@H](C)CC)C(=O)Nc3ccccc3)cc2)cc1` [Compound 38, 3-[(2S,3S)-2-Amino-3-methylpentyl]-1-phenyl-3-{4′-propyl-[1,1′-biphenyl]-4-yl}urea], the “cAMP pEC50” value is on record as “Inactive”. On to `CCCc1ccc(-c2ccc(N(C[C@@H](N)[C@@H](C)CC)C(=O)N(C)c3ccccc3)cc2)cc1` [Compound 39, 3-[(2S,3S)-2-Amino-3-methylpentyl]-1-methyl-1-phenyl-3-{4′-propyl-[1,1′-biphenyl]-4-yi}urea], for which the Emax is 97 ± 12% and the EC50 was 2820 nM.

For the compound `CCCc1ccc(-c2ccc(N(C[C@@H](N)[C@@H](C)CC)C(=O)NCc3ccccc3)cc2)cc1` [Compound 40, 3-[(2S,3S)-2-Amino-3-methylpentyl]-1-benzyl-3-{4′-propyl-[1,1′-biphenyl]-4-yl}urea], the maximal effect (Emax) stood at 97 ± 4% and the EC50 was 2000 nM. As to `CCCc1ccc(-c2ccc(N(C[C@@H](N)[C@@H](C)CC)C(=O)N[C@H](C)c3ccccc3)cc2)cc1` [Compound 41, 3-[(2S,3S)-2-Amino-3-methylpentyl]-1-[(1 R)-1-phenylethyl]-3-{4′-propyl-[1,1′-biphenyl]-4-yl}urea], the “cAMP pEC50” value is given as “Inactive”. As to `CCCc1ccc(-c2ccc(N(C[C@@H](N)[C@@H](C)CC)C(=O)N[C@@H](C)c3ccccc3)cc2)cc1` [Compound 42, 3-[(2S,3S)-2-Amino-3-methylpentyl]-1-[(1 S)-1-phenylethyl]-3-{4′-propyl-[1,1′-biphenyl]-4-yl}urea], the Emax was found to be 106 ± 10% and the 50% effective concentration (EC50) was 1020 nM. The matching figures for `CCCCCCc1ccc(N(C[C@@H](N)[C@@H](C)CC)C(=O)N[C@@H](C)c2ccccc2)cc1` [Compound 43, 3-[(2S,3S)-2-Amino-3-methylpentyl]-3-(4-hexylphenyl)-1-[(1 S)-1-phenylethyl]urea]: 108 ± 4% and 1380 nM. Turning to `CCCc1ccc(-c2ccc(N(C[C@@H](N)[C@@H](C)CC)C(=O)N[C@@H]3C[C@H]3c3ccccc3)cc2)cc1` [Compound 44, 1-[(2S,3S)-2-Amino-3-methylpentyl]-3-[(1 R,2S)-2-phenylcyclopropyl]-1-(4′-propyl-[1,1′-biphenyl]-4-yl}urea], the “cAMP pEC50” value was “Inactive”.

Turning to `CCCc1ccc(-c2ccc(N(C[C@@H](N)[C@@H](C)CC)C(=O)N[C@H]3C[C@@H]3c3ccccc3)cc2)cc1` [Compound 45, 1-[(2S,3S)-2-Amino-3-methylpentyl]-3-[(1 S,2R)-2-phenylcyclopropyl]-1-(4′-propyl-[1,1′-biphenyl]-4-yl}urea], the Emax stood at 110 ± 5% and the EC50 was 2290 nM. As for `CCCc1ccc(-c2ccc(N(C[C@@H](N)[C@@H](C)CC)C(=O)NC3(c4ccccc4)CC3)cc2)cc1` [Compound 46, 1-[(2S,3S)-2-Amino-3-methylpentyl]-3-(1-phenylcyclopropyl)-1-{4′-propyl-[1,1′-biphenyl]-4-yl}urea], the Emax worked out at 91 ± 4% and the EC50 was 1860 nM. The matching figures for `CCCc1ccc(-c2ccc(N(C[C@@H](N)[C@@H](C)CC)C(=O)N[C@@H](CC)c3ccccc3)cc2)cc1` [Compound 47, 3-[(2S,3S)-2-Amino-3-methylpentyl]-1-[(1 S)-1-phenylpropyl]-3-{4′-propyl-[1,1′-biphenyl]-4-yl}urea]: 103 ± 4% and 2000 nM. Regarding `CCCc1ccc(-c2ccc(N(C[C@@H](N)[C@@H](C)CC)C(=O)N[C@@H](COC)c3ccccc3)cc2)cc1` [Compound 48, 3-[(2S,3S)-2-Amino-3-methylpentyl]-1-[(1 R)-2-methoxy-1-phenylethyl]-3-{4′-propyl-[1,1′-biphenyl]-4-yl}urea], the Emax was 110 ± 5% and the EC50 is 1550 nM.

Regarding `CCCc1ccc(-c2ccc(N(C[C@@H](N)[C@@H](C)CC)C(=O)N[C@@H](C)c3ccco3)cc2)cc1` [Compound 49, 1-[(2S,3S)-2-Amino-3-methylpentyl]-3-[(1 S)-1-(furan-2-yl)ethyl]-1-{4′-propyl-[1,1′-biphenyl]-4-yl}urea], the Emax was 115 ± 5% and the 50% effective concentration (EC50) is 2570 nM. The matching figures for `CCCc1ccc(-c2ccc(N(C[C@@H](N)CC(C)C)C(=O)N[C@@H](C)c3ccccc3)cc2)cc1` [Compound 50, 3-[(2S)-2-Amino-4-methylpentyl]-1-[(1 S)-1-phenylethyl]-3-{4′-propyl-[1,1′-biphenyl]-4-yl}urea]: 112 ± 8% and 1200 nM.

For the compound `CCCc1ccc(-c2ccc(N(C[C@H](N)CC(C)C)C(=O)N[C@@H](C)c3ccccc3)cc2)cc1` [Compound 51, 3-[(2R)-2-Amino-4-methylpentyl]-1-[(1 S)-1-phenylethyl]-3-{4′-propyl-[1,1′-biphenyl]-4-yl}urea], the Emax turned out to be 129 ± 4% and the EC50 was 1410 nM. With `CCCc1ccc(-c2ccc(N(C[C@H](C)N)C(=O)N[C@@H](C)c3ccccc3)cc2)cc1` [Compound 52, 3-[(2S)-2-Aminopropyl]-1-[(1 S)-1-phenylethyl]-3-{4′-propyl-[1,1′-biphenyl]-4-yl}urea], the Emax was determined as 107 ± 3% and the EC50 is 1290 nM. The matching figures for `CCCc1ccc(-c2ccc(N(C[C@@H]3CCCN3)C(=O)N[C@@H](C)c3ccccc3)cc2)cc1` [Compound 53, 1-[(1 S)-1-Phenylethyl]-3-{4′-propyl-[1,1′-biphenyl]-4-yl}-3-{[(2S)-pyrrolidin-2-yl]methyl}urea]: 106 ± 3% and 1740 nM. For the compound `CCCc1ccc(-c2ccc(N(C[C@@H](N)[C@@H](C)OC)C(=O)N[C@@H](C)c3ccccc3)cc2)cc1` [Compound 54, 3-[(2R,3R)-2-Amino-3-methoxybutyl]-1-[(1 S)-1-phenylethyl]-3-{4′-propyl-[1,1′-biphenyl]-4-yl}urea], the Emax stood at 106 ± 3% and the EC50 is 324 nM. Consider `CO[C@H](C)[C@H](N)CN(C(=O)N[C@@H](C)c1ccccc1)c1ccc(-c2ccc(C)cc2)cc1` [Compound 55, 3-[(2R,3R)-2-Amino-3-methoxybutyl]-1-[(1 S)-1-phenylethyl]-3-{4′-methyl-[1,1′-biphenyl]-4-yl}urea], for which the Emax is 114 ± 6% and the EC50 is 457 nM. On to `CCc1ccc(-c2ccc(N(C[C@@H](N)[C@@H](C)OC)C(=O)N[C@@H](C)c3ccccc3)cc2)cc1` [Compound 56, 3-[(2R,3R)-2-Amino-3-methoxybutyl]-1-[(1 S)-1-phenylethyl]-3-{4′-ethyl-[1,1′-biphenyl]-4-yl}urea], for which the Emax came to 116 ± 9% and the EC50 was 331 nM. In the case of `COc1ccc(-c2ccc(N(C[C@@H](N)[C@@H](C)OC)C(=O)N[C@@H](C)c3ccccc3)cc2)cc1` [Compound 57, 3-[(2R,3R)-2-Amino-3-methoxybutyl]-1-[(1 S)-1-phenylethyl]-3-{4′-methoxy-[1,1′-biphenyl]-4-yl}urea], the Emax was found to be 101 ± 3% and the concentration giving a half-maximal response (EC50) is 891 nM.

For the origin of these results see patent US20250145561A1, “4-SUBSTITUTED-PHENYL ACETAMIDES AND ARYLUREAS AS AGONISTS FOR THE ORPHAN RECEPTOR GPR88” (RESEARCH TRIANGLE INSTITUTE, priority 2022, published 2025).
